pEC50: −log10 of the molar value. Where two headings read alike, the source gives them in different places.
Legend:
Type in all cases: cell-based, human
[1] = test system: M170.51 CTL clone / peptide-pulsed T2 cells; test: Cytotoxicity of M170.51 CTL clone against peptide-pulsed T2 cells (4 h 51Cr release); conditions: peptide loaded on T2 cells
Protocol: (§1) (A) Structure of meloe cDNA. Black boxes correspond to ORFs tested for recognition by the CTL clone. (B) M170.48 and M170.51 TNF responses to COS-7 cells (E/T ratio 1/3) transfected with indicated plasmids. T cell clone was added 2 days after the transfection and the CTL clone reactivity was assessed by a TNF release assay. (C) Amino acid sequences of the ORF 1230-1370 and the ORF 285-404 of meloe isolated from M134 cDNA library. (D and E) Cytotoxicity of M170.48 CTL clone (D) and M170.51 CTL clone(E) against peptide-pulsed T2 cells. Target cells were chromium labeled for 60 min and incubated for 30 min with a range of the indicated peptides. T cell clones were added at an E/T ratio of 10/1 and chromium release was then measured after a 4 h incubation period.
(§2) Cytotoxic activity of T cells was measured in a standard 4-h assay against ^51Cr-labeled cells (peptide-loaded T2 cells or tumor cell lines) (23). […] After staining, cells were resuspended in PBS and analyzed on a LSR flow cytometer using Cell Quest software. […]

[2] = test system: M170.48 CTL clone / peptide-pulsed T2 cells; test: Cytotoxicity of M170.48 CTL clone against peptide-pulsed T2 cells (4 h 51Cr release); conditions: peptide loaded on T2 cells
Protocol: as §1, §2

[3] = test system: MELOE-1 specific T cell clones / peptide-loaded T2 cells; test: Relative avidity of MELOE-1 specific T cell clones, 4-h 51Cr assay against peptide-loaded T2 cells
Protocol: Cytotoxicity of MELOE-1 specific CTL clones against peptide-pulsed T2 cells. Target cells were chromium labeled for 60 min and incubated for 30 min with a range of the MELOE-136-44 peptide. T cell clones derived from healthy donors (A), melanoma patients PBMC (B) and TIL (C) were added at an E/T ratio of 10/1 and chromium release was then measured after a 4 h incubation period. (D) Mean EC50 of the MELOE-1 specific T cell clones in response to the MELOE-136-44 peptide, according to their origin. EC50 were compared using statistical analysis done with InStat 2.01. Data were analyzed using Kruskal-Wallis comparison test. *p=0.019, considered significant.
The relative avidity of […] specific T cell clones and their anti-tumor reactivity was measured respectively in a standard 4-h assay against ^51Cr-labeled peptide-loaded T2 cells and towards HLA-A2 melanoma cell lines. Briefly, target cells (peptide pulsed-T2 or melanoma cells) were incubated with 100 μCi Na2^51CrO4 (Oris Industrie, Gif-sur-Yvette, France) at 37° C. for 1 h. For peptide recognition assays, T2 cells were preincubated with a range of […] peptide concentrations for 1 h at 37° C. […] Data were analyzed using Kruskal-Wallis comparison test, followed by Dunn'post test. […]

| Sequence | recognition by M170.51 T cell clone [1] | EC50 ([1]; M170.51 CTL clone, E/T ratio 10/1, 4 h chromium release, read-out: half maximal lysis (converted)) | recognition by M170.48 T cell clone [2] | pEC50 ([2]; M170.48 CTL clone, E/T ratio 10/1, 4 h chromium release, read-out: half maximal lysis) | pEC50 ([3]; healthy donor clonotype HD1.21, read-out: EC50 of clonotype HD1.21) | pEC50 ([3]; healthy donor clonotype HD3.38, read-out: EC50 of clonotype HD3.38) |
| --- | --- | --- | --- | --- | --- | --- |
| RCPPKPPLA | recognized | 50 nM |  |  |  |  |
| TLNDECWPA |  |  | recognized | 8.00 | 8.00 | 9.00 |

— patent US8975371B2, “Melanoma antigen peptide and uses thereof” (INSERM (Institut National de la Sante et de la Recherche …, priority 2008, dated 2015)
